Values after ≈ are worked out from the molar mass of the structure shown.

For this series the following is noted: buffer; pH 7.4; 200.0 µM.
As usually defined, the kinetic solubility is the concentration staying in solution when a stock, usually in DMSO, is diluted into the medium. On to `COc1ccc(C(=O)O/N=C(/C(N)=O)P(=O)(OC(C)C)OC(C)C)cc1`, for which the solubility (kinetic) turned out to be 49.1 µg/mL (≈ 127 µM).
To `Cc1cc(C)nc(NC(=O)CSc2ncccn2)n1` belongs more than 41.3 µg/mL; to `CC(=O)c1nc2ccccc2n1Cc1ccccc1`, 14.5 µg/mL (≈ 57.9 µM).
To `COc1ccc(S(=O)(=O)NCc2ccccn2)cc1Br` belongs more than 53.6 µg/mL.
To `N#Cc1ccccc1OCC(=O)OCC(=O)NC1CCCCC1` belongs more than 47.5 µg/mL; to `CCCc1cc(=O)[nH]c(SCC(=O)NC2CCCCCCC2)n1`, 14.5 µg/mL (≈ 43 µM).
In turn, `NC(=O)CCN1CCCCC1` returned a kinetic solubility of more than 23.4 µg/mL.
The value for `N#C/C(=C(/O)c1cccc(F)c1)c1nc2ccccc2s1` was 17.8 µg/mL (≈ 60.1 µM); that for `Cc1[nH]c2ccccc2c1C(=O)C(=O)N1CCN(C(=O)c2ccco2)CC1` was more than 54.8 µg/mL; that for `Cc1ccc(C)c(S(=O)(=O)Nc2ccc3[nH]c(=O)[nH]c3c2)c1` was 10.4 µg/mL (≈ 32.8 µM).
On to `O=C(CNS(=O)(=O)c1ccc(Br)cc1)N1CCN(Cc2ccccc2)CC1`, for which the solubility (kinetic) stood at 7.2 µg/mL (≈ 15.9 µM).
To `O=[N+]([O-])c1cccc(N2Cc3ccccc3C2)c1` belongs 7.9 µg/mL (≈ 32.9 µM).
The value for `CCOc1ccc(-c2ncncc2-c2ccc(OC)c(OC)c2)c(O)c1` was 3.6 µg/mL (≈ 10.2 µM); that for `COc1ccccc1CNC(=O)c1cc(-c2cccnc2)nc2ccccc12` was 0.7 µg/mL (≈ 1.89 µM); that for `COc1cc(C(=O)OC(C)C(=O)Nc2ccc3c(c2)OCCO3)cc(OC)c1OC` (stereo not drawn) was 7.2 µg/mL (≈ 17.2 µM).
The value for `O=C(NCCC1=CCCCC1)c1cc2ccccc2oc1=O` was less than 0.6 µg/mL; that for `O=C(Nc1cccnc1)c1cc(Cl)ccc1Cl` was more than 40.1 µg/mL.
The compound `CCCNC(=O)c1cc(-c2ccc3c(c2)OCO3)on1` gave a solubility (kinetic) of 2.9 µg/mL (≈ 10.6 µM).
On to `COc1cc(OC)nc(Oc2ccc(N)c(C)c2)n1`, for which the solubility (kinetic) is more than 39.2 µg/mL.
To `Nc1nc(Nc2ccccc2F)nc(NC2CCCCC2)c1[N+](=O)[O-]` belongs less than 0.1 µg/mL; to `Brc1ccc(OCCCCN2CCCCC2)cc1`, 40.7 µg/mL (≈ 130 µM); to `Cc1ccc(C)c(S(=O)(=O)NCCCc2ccccc2)c1`, 14.2 µg/mL (≈ 46.8 µM).
Consider `N#CC1=C(N)Oc2c(ccc3cccnc23)C1c1ccccc1` (stereo not drawn), for which the kinetic solubility amounted to 9.8 µg/mL (≈ 32.7 µM).
To `CCc1cccc2c(=O)c(C(=O)NCCCOC)c[nH]c12` belongs more than 43.3 µg/mL; to `CCC1(c2ccc(F)cc2)NC(=O)N(CC(=O)N2CCN(C(=O)c3ccco3)CC2)C1=O` (stereo not drawn), more than 66.4 µg/mL; to `CCCn1c(=O)cc(N)n(-c2ccc(OC(F)(F)F)cc2)c1=O`, more than 49.4 µg/mL.
The value for `Cc1cc(C(=O)OCC(=O)NCc2ccccc2)c2ccccc2n1` was 13.9 µg/mL (≈ 41.6 µM); that for `NS(=O)(=O)c1ccc(S(=O)(=O)N2CCN(C3CCCC3)CC2)cc1` was 47.8 µg/mL (≈ 128 µM).
The compound `O=c1nc(-c2ccccc2Cl)c2cc(F)ccc2[nH]1` came in with a kinetic solubility of 38.9 µg/mL (≈ 142 µM).
The value for `CN1CCN(S(=O)(=O)c2ccc(Cl)s2)CC1` was more than 42.1 µg/mL; that for `COc1cc(C(=O)N[C@H](C(=O)OCC(=O)NC2CCCCCC2)C(C)C)cc(OC)c1OC` was more than 69.7 µg/mL.
The value for `CCN1CCN(S(=O)(=O)Cc2ccccc2Cl)CC1` was more than 45.4 µg/mL; that for `COC(=O)CSc1nccc(-c2ccc(F)cc2)c1C#N` was less than 0.3 µg/mL.
Consider `OC(CNC1CCCCC1)C(F)(F)F` (stereo not drawn), for which the kinetic solubility is more than 31.7 µg/mL.
As for `COc1ccccc1CSc1nc2c(c(=O)n(C)c(=O)n2C)n1C`, the solubility (kinetic) was 9.8 µg/mL (≈ 28.3 µM).
To `CN(C)CC(C)(C)CNS(=O)(=O)c1ccc(Cl)cc1.Cl` belongs 49.4 µg/mL; to `CCN(C(=O)COC(=O)c1ccc2c(c1)OCO2)c1ccccc1`, more than 49.1 µg/mL; to `O=C(N[C@@H](Cc1ccccc1)C(=O)NC1CC1)c1ccc(Cl)cc1`, 6.8 µg/mL (≈ 19.8 µM).
For `CCc1noc(C)c1C(=O)Nc1ccc(F)c(F)c1`, the kinetic solubility came out at 37.7 µg/mL (≈ 142 µM).
To `COc1ccc(NC(=O)c2cc(=O)c3ccccc3o2)cc1Cl` belongs less than 0.7 µg/mL; to `COc1ccc(Cl)cc1C(=O)Nc1nc(C)cc(C)n1`, more than 43.8 µg/mL.
To `Cc1cccc(/C(N)=N/OC(=O)c2ccncc2)c1` belongs 29.1 µg/mL (≈ 114 µM).
To `O=C(OCc1csc(-c2ccccc2)n1)c1ccccc1O` belongs less than 0.7 µg/mL; to `O=C(/C=C/c1cccs1)Nc1nccs1`, 0.7 µg/mL (≈ 2.96 µM); to `O=C(Nc1nccs1)c1ccc(COc2ccccc2)o1`, less than 0.3 µg/mL.
Consider `COc1cccc(NC(=O)c2cnc(SC)nc2)c1`, for which the kinetic solubility amounted to 14.3 µg/mL (≈ 51.9 µM).
To `CCc1ccccc1NC(=O)CN(C)C(=O)COC(=O)c1cccnc1Cl` belongs more than 58.5 µg/mL.
`O=C(NCCCn1ccnc1)c1cccc(Cl)c1`: the solubility (kinetic) is more than 39.6 µg/mL.
The value for `Cc1cc(C)cc(OCC(=O)OCC(=O)Nc2cc(S(=O)(=O)N3CCOCC3)ccc2Cl)c1` was 41.6 µg/mL (≈ 83.7 µM).
To `CC(CCc1ccccc1)NC(=O)c1ccccc1Cl` (stereo not drawn) belongs 41.6 µg/mL (≈ 145 µM).
To `Cc1cccc(NC(=O)/C(C#N)=C/c2ccccc2O)n1` belongs 20.9 µg/mL (≈ 74.8 µM); to `O=C(CN1CCCC1)NCC(=O)Nc1ccc(F)cc1`, more than 41.9 µg/mL.
The compound `CC(C)(C)N(Cc1ccccc1)C(=O)c1cc2ccccc2o1` gave a kinetic solubility of 1.1 µg/mL (≈ 3.58 µM).
As to `FC(F)(F)c1cnc(COc2ccc(Cl)cc2Cl)c(Cl)c1`, the kinetic solubility is less than 0.8 µg/mL.
The value for `CC1CCCC(NC(=O)c2ccc3c(c2)NC(=O)CS3)C1C` (stereo not drawn) was 5.3 µg/mL (≈ 16.6 µM).
To `O=C1NC2(CCCCCCC2)C(=O)N1Cc1ccc(F)cc1` belongs 10.5 µg/mL (≈ 34.5 µM); to `Cc1cccc(C(=O)OCC(=O)N2CCc3ccccc3C2)c1O`, 6.8 µg/mL (≈ 20.9 µM); to `O=S(=O)(c1ccc2ccccc2c1)N1CCc2ccccc21`, less than 0.7 µg/mL.
To `CC(C)C(NC(=O)c1ccc(F)cc1)C(=O)N1CCC1` (stereo not drawn) belongs more than 41.7 µg/mL; to `COc1ccccc1NC(=O)c1cc(C)oc1C`, more than 36.8 µg/mL.
For the compound `CC1CN(C(=O)CCNC(=O)c2ccc(Cl)cc2)CC(C)O1` (stereo not drawn), the solubility (kinetic) was found to be 42.1 µg/mL (≈ 130 µM).
The value for `COCC(=O)N1CCN(c2cccc(Cl)c2)CC1` was more than 40.3 µg/mL; that for `COc1cc(-c2cc(C(=O)Nc3ccc(C)c(S(=O)(=O)N4CCOCC4)c3)c3ccccc3n2)cc(OC)c1OC` was 6.7 µg/mL (≈ 11.6 µM); that for `Cc1ccc(NC(=O)C(=O)NCc2ccncc2)cc1` was 29.6 µg/mL (≈ 110 µM).
The value for `COc1cc2c(C(=O)O)c(C)n(-c3ccccc3)c2c2ccccc12` was 1.3 µg/mL (≈ 3.92 µM).
The value for `O=C(c1cnc2ccccc2n1)N1CCN(c2ccc(C(F)(F)F)cn2)CC1` was 1 µg/mL (≈ 2.58 µM); that for `Cc1ccnc(NC(=O)c2ccc3c(c2)NC(=O)C(C)S3)c1` (stereo not drawn) was 6.6 µg/mL (≈ 21.1 µM).
Compound `CCOc1ccc2oc(C(=O)OCC(=O)NC(=O)NC)c(C)c2c1` came in with a solubility (kinetic) of 1.9 µg/mL (≈ 5.68 µM).
The value for `Cc1cccc(C(=O)NCC(=O)OCC(=O)c2ccc(C)s2)c1` was more than 49.7 µg/mL; that for `CN(C)S(=O)(=O)c1ccc(NC(=O)CN2CCCCCC2)cc1` was 50.9 µg/mL (≈ 150 µM).
To `O=S(=O)(CCN1CCOCC1)c1ccc(OC(F)(F)F)cc1` belongs more than 50.9 µg/mL; to `CC1CN2C(c3ccc([N+](=O)[O-])cc3)=CSC2=N1` (stereo not drawn), 26.3 µg/mL (≈ 101 µM); to `COC(=O)CSc1nc2ccc(N)cc2s1`, more than 38.1 µg/mL.
To `OCCN(Cc1ccccc1)C(=S)Nc1ccc(F)cc1` belongs 43.1 µg/mL (≈ 142 µM).
`COc1ccc(Nc2c3c(nc4ccccc24)CCC3)c(OC)c1` yielded a kinetic solubility of more than 48.1 µg/mL.
As for `Cc1cc(C)c(-c2c(O)c3cccnc3n(C)c2=O)c(C)c1`, the solubility (kinetic) amounted to 43.4 µg/mL (≈ 147 µM).
To `O=C(Nc1ccnc(-c2ccncc2)n1)c1ccccc1Cl` belongs 0.9 µg/mL (≈ 2.9 µM).
`Cc1cc(C)c(C)c(S(=O)(=O)NC(C(=O)O)C(C)C)c1C` (stereo not drawn) showed a solubility (kinetic) of more than 47 µg/mL.
The value for `CC1CCCC(NC(=O)COC(=O)CCc2ccccc2)C1C` (stereo not drawn) was 12.2 µg/mL (≈ 38.4 µM).
The value for `Cc1ccc(C)c(NC(=O)CN(C)C(=O)c2sccc2C)c1` was more than 47.5 µg/mL; that for `COc1ccc2c(c1OC)C(=O)N1C2SC[C@H]1C(=O)NC1CC1` (stereo partly drawn) was more than 50.2 µg/mL; that for `COCCc1nnc(NC(=O)C(C)C)s1` was more than 34.4 µg/mL.
The value for `Cc1cc(C)nc(NC(=S)Nc2ccc(F)cc2F)c1` was 1.7 µg/mL (≈ 5.8 µM); that for `Cc1ccc(C)c(NCC(O)c2ccccc2)c1` (stereo not drawn) was more than 36.2 µg/mL.
`C#CCOc1ccc2ccccc2c1/C=C(/C#N)c1ccc(C(=O)O)cc1` gave a kinetic solubility of 53 µg/mL (≈ 150 µM).
Compound `Cc1cc(NC(=O)c2ccc(-c3ccccc3[N+](=O)[O-])o2)no1` returned a solubility (kinetic) of 6.7 µg/mL (≈ 21.4 µM).
The value for `O=C(CC(c1ccccc1)c1ccccc1)Nc1ccc(O)cc1` was 31.7 µg/mL (≈ 99.9 µM); that for `O=C(O)C1CCCN1S(=O)(=O)c1ccc(F)cc1` (stereo not drawn) was more than 41 µg/mL.
Compound `CC12CCC(=O)N1C(C(=O)Nc1nc3ccccc3s1)CS2` (stereo not drawn) registered a kinetic solubility of 13 µg/mL (≈ 39 µM).
To `NC(=O)C1(C(N)=O)OC1c1ccccc1` (stereo not drawn) belongs more than 30.9 µg/mL; to `CN(CC(=O)Nc1ccc(F)c(F)c1F)C(=O)C1=COCCO1`, more than 49.5 µg/mL; to `CCN(CC)c1ncc(C#N)c(N)n1`, 25.6 µg/mL (≈ 134 µM).
The value for `Nc1cc(S(=O)(=O)N2CCOCC2)ccc1N1CCCCC1` was 42.2 µg/mL (≈ 130 µM); that for `CCC1(CC)Cc2ccccc2-c2[nH]c(=S)[nH]c(=O)c21` was 27.3 µg/mL (≈ 95.3 µM); that for `COc1ccccc1CCC(=O)NNC(=O)c1ccccc1` was more than 44.8 µg/mL.
`CC(C)Cc1ccc(/C=C/C(=O)N2CCOCC2)cc1` had a solubility (kinetic) of more than 41 µg/mL.
The value for `COc1ccc(C(=O)Nc2ccc3ccccc3c2)c(OC)c1` was less than 0.7 µg/mL; that for `N#CCCN(Cc1cccnc1)C(=S)NC1CC2C=CC1C2` (stereo not drawn) was more than 46.9 µg/mL.
To `CCC(=O)N1c2ccc(S(=O)(=O)N3CCCC3)cc2CC1C` (stereo not drawn) belongs 33.5 µg/mL (≈ 104 µM); to `O=C1C(=O)N(C/C=C/c2ccccc2)c2ccccc21`, 2.3 µg/mL (≈ 8.74 µM).
For `CC(=O)N(c1ccc(C)cc1)c1nc(C)cc(C)c1C#N`, the solubility (kinetic) is more than 41.9 µg/mL.
`Cc1cc(C)nc(NC2=NCCN2C(=S)Nc2ccc(C)c(C)c2)n1` yielded a kinetic solubility of 2.4 µg/mL (≈ 6.77 µM).
The value for `CCCN1C(=O)/C(=C/c2nc3ccccc3c(=O)[nH]2)c2cc(C)ccc21` was less than 0.2 µg/mL.
